Measurements: patent US10076511B2, “Bisamide derivative of dicarboxylic acid as an agent for stimulating tissue regeneration and recovery of diminished tissue function” (TREAMID GmbH, priority 2015, dated 2018)
Values joined by “and” are separate entries in the source; they are usually repeats but may differ in a detail not shown here. Equal entries are not always repeated.

Key:
Assay type in all cases: in vivo, rat
male Wistar rats [1] = experiment: Metabolic syndrome model in rats (cafeteria diet)
Source text: Metabolic syndrome was simulated in male Wistar rats (260-280 g) by keeping animals on a high-fat diet (“cafeteria diet”) for 12 weeks. The “cafeteria diet” was balanced according to Current Protocols in Pharmacology [Current Protocols in Pharmacology (2005) Animal Models of Disease//Contributed by Petter Hedlund, Kenshi Matsumoto, and Karl-Erik Andersson]. The diet contained 25-35% of fats and 25-30% of digestible carbohydrates in addition to the standard diet of rodents. Treamid was administered at a dose of 0.5 mg/kg intragastrically once daily, every day from Week 7 to Week 11 of the diet. Reference drug Metformin was administered at a dose of 200 mg/kg intragastrically according to the same regimen.
The development of pathology and a therapeutic effect of Treamid were estimated by the following parameters: blood biochemical parameters (glucose, cholesterol, triglycerides (TG), HDL, LDL, atherogenicity index), glucose tolerance test, visceral fat weight, total number and percentage of motile sperm forms.
Glucose was determined with an OneNouch Select glucometer (Switzerland).
The levels of triglycerides, TCh and HDL were determined by using a diagnostic kit (Olvex Diagnosticum, Russia).
The level of LDL was determined by the formula 2. LDL=TCh−(HDL+TG/2.2) (1),
The atherogenicity index (AI) was calculated by the formula 3. AI=(TCh−HDL)/HDL (2),
The atherogenicity index was calculated for each animal individually, and then the arithmetic mean value of the group was calculated.
For the analysis of sperm, the animals were anesthetized with intraperitoneal injection of a mixture of Zolletil and Xyla (0.2 ml of Zoletil+0.8 ml Xyla) in a volume of 70 μl/100 g of weight. Epididymis was isolated. The epididymis head was cut off from the tail, weighed, 5 incisions were made (to improve the sperm yield), and placed in a tube containing 10 ml of phosphate buffered saline heated to 37° C. The tube was held at 37° C. for 10 minutes. Then, the tube was shaken on a shaker, 20 μl of the liquid was taken, applied to a glass slide heated to 37° C., and the number of motile sperm cells was assessed under a microscope. The calculation was performed up to 100 sperm cells.
The total number of sperm cells in a test tube with epididymis was calculated as follows: 20 μl of the liquid was taken after shaking and added to a tube containing 400 μl of physiological saline. After shaking the tubes, their contents (20 μl) were taken out and introduced into Goryaev chamber. The number of sperm cells was counted in 100 large squares. The number of sperm cells in the head of epididymis was calculated by the formula: Number of sperm cells=number of sperm cells in 100 large squares of Goryaev chamber*0.525(factor from the calculation of the dilution and the volume of Goryaev chamber)/weight of the epididymis head.

male Wistar rats [2] = experiment: Sperm motility in hypogonadotropic hypogonadism simulated with Synestrol; settings: Synestrol 50 U/kg/day, Treamid 0.5 mg/kg or Tribestan 70 mg/kg intraperitoneally Day 31-45
Description: Hypogonadotropic hypogonadism was simulated by the administration of Synestrol. Estrogens are able to inhibit the secretion of LH (Luteinizing hormone) and FSH (follicle stimulating hormone). An increase in the concentration of estrogens in a male body is accompanied by an increase in the content of sex-steroid-binding globulins, which leads to a decrease in the concentration of free testosterone and to the appearance of asthenospermia.
Experiments were performed on 36 male Wistar rats (3 months of age). For 30 days after the beginning of the experiment, all male rats (except for the background group) were intramuscularly injected with Synestrol at a dose of 50 U/kg/day. Further, from Day 31 to Day 45 of the experiment, the animals of the experimental group, in addition to Synestrol, were intraperitoneally administered Treamid at dose of 0.5 mg/kg or reference drug Tribestan at a dose of 70 mg/kg. The effectiveness of Treamid was estimated by the number of motile sperm forms (percentage of motile sperm forms) isolated from the epididymis. The results of the studies were compared with those for the administration of Synestrol (control) and reference drug Tribestan.

male Wistar rats [3] = experiment: Sexual incentive motivation test, rats of late reproductive age
Description: Erectile dysfunction was simulated by using animals of late and senile reproductive age (14-19 months). Suppression of sexual motivation was simulated by using animals of late reproductive age (14 months).
Experiments on studying the effect of Treamid on sexual motivation were carried out on 40 male Wistar rats (14 months of age). A model for a targeted search for novel agents for the therapy of this pathology was used as an experimental model of sexual incentive motivation in rats [Xi Chu, Ekaterina S. Zhavbert, Julia L. Dugina, Irina A. Kheyfets, Svetlana A. Sergeeva, Oleg I. Epstein, Anders Agmo Sindenafil and a compound stimulating endothelial NO synthase modity sexual incentive motivation and copulatory behavior in male wistar and fisher 344//J Sex Med.—2008.—5.—P. 2085-2009]. This model is based on the fact that rats are social animals and seek not only sexual, but also social contacts. The assessment of sexual motivation involves determining the time spent near a sexual stimulus and the score of preference in animals without direct contact with “social” and “sexual” stimuli. The sexual stimulus was a female rat in estrus stage, and the social stimulus was a male rat.

[4] = Treamid 0.5 mg/kg, Metformin 200 mg/kg intragastrically Week 7-11 of high-fat diet
[5] = high-fat diet for 12 weeks, Treamid 0.5 mg/kg, Metformin 200 mg/kg
[6] = high-fat diet, Treamid 0.5 mg/kg, Metformin 200 mg/kg
[7] = 14-month rats, Second test, after administration of the test compound, Treamid 5 mg/kg, Sildenafil 3 mg/kg, 14 days
[8] = 14-month rats, first test, before administration

## O=C(CCCC(=O)NCCc1ncc[nH]1)NCCc1ncc[nH]1 [Treamid]
Male Wistar rats [1]; 3 weeks after the drug administration, Treamid 0.5 mg/kg, Metformin 200 mg/kg
  Glucose level in the blood of male rats, mmol/L: 6.5 ± 0.2*& mmol/L
Male Wistar rats [1]; 5 weeks after the drug administration, Treamid 0.5 mg/kg, Metformin 200 mg/kg
  Glucose level in the blood of male rats, mmol/L: 7.8 ± 0.2*& mmol/L
Male Wistar rats [1]; [4]
  Relative weight of visceral fat, Fat near the intestine: 0.94 ± 0.07 % based on body weight
  Relative weight of visceral fat, Fat near the kidneys: 0.48 ± 0.05& % based on body weight
  Relative weight of visceral fat, Fat near the testes: 1.03 ± 0.14 % based on body weight
  Relative weight of visceral fat, Total fat: 2.46 % based on body weight
Male Wistar rats [1]; Treamid 0.5 mg/kg, Metformin
  reduction of visceral fat weight gain in comparison with the control group: 1.3 times
Male Wistar rats [1]; before administration of drugs (Week 6 of diet)
  Glucose level in the blood of male rats: 6.4 ± 0.2 mmol/L
Male Wistar rats [1]; [5]
  HDL, mM/l: 1.9±0.2 mM/l and 1.9 ± 0.2& mM/l
  LDL, mM/l: 1.2 ± 0.2 mM/l
  Total cholesterol, mM/l: 3.5 ± 0.1 mM/l
  Triglycerides, mM/l: 0.9 ± 0.1 mM/l
Male Wistar rats [1]; [6]
  Percentage of motile sperm forms: 34.43 ± 3.15& %
  Total number of sperm cells: 260.0 ± 38.7&
Male Wistar rats [1]; one week after the drug withdrawal, Treamid 0.5 mg/kg, Metformin 200 mg/kg
  Glucose level in the blood of male rats, mmol/L: 8.3 ± 0.7& mmol/L
Male Wistar rats [1]; vs. high-fat diet control
  increase of the percentage of motile sperm forms: 1.5 times
  increase of the total number of sperm cells: 1.7 times
Male Wistar rats [2]; group X ± m
  The number of motile sperm cells (%): 69.06 ± 2.98#*⋄ %
Male Wistar rats [2]; individual animals
  The number of motile sperm cells (%): 67.04% and 56.84% and 78.65% and 59.09% and 72.63% and 66.67% and 66.99% and 85.55% and 68.08%
Male Wistar rats [3]; [7]
  A, sec (time spent in the sexual stimulus zone): 154.00 ± 41.83#⋄ sec
  B, sex (time spent in the social stimulus zone): 95.60 ± 29.66 s
  PS, s. u. (preference score): 0.64±0.09 s. u. and 0.64 ± 0.09⋄ s. u.
Male Wistar rats [3]; 14-month rats, Treamid 5 mg/kg, Sildenafil 3 mg/kg
  effect on sexual motivation: has a stimulating effect
Male Wistar rats [3]; [8]
  A, sec (time spent in the sexual stimulus zone): 132.30 ± 23.69 s
  B, sec (time spent in the social stimulus zone): 113.60 ± 13.77 s
  PS, s. u. (preference score): 0.51 ± 0.06 s. u.
Male Wistar rats [3]; Treamid 5 mg/kg, second test
  decrease of time spent in the social stimulus zone compared with the control: 2 times
